A short description of data set [1]: Force degradation of 2% CBD cream (CBD assay by HPLC). In kind it is physicochemical. To be noted: vs untreated reference. Here is the method:
Samples were prepared by the following method: • 1. 200 mg 2% CBD cream vs. Blank (7 mL vials), • 2. Subjected to Oxidation/Base/Acid/Heat/UV conditions (see below), • 3. Mixing with 4 mL DMSO, • 4. Sonication, 30 min, • 5. Shaking, 1 h, • 6. Centrifugation at 4000 rpm, 5 min, • 7. Filtration by 0.22 μm PTFE, • 8. HPLC sample preparation and HPLC protocol as above.
Samples were subjected to the following force degradation conditions and tested for CBD content: • Heat: 200 mg cream was heated at 100° C. (oil bath) for 6 h; • UV: 200 mg cream was exposed to the sun for 3 h; • Acidic conditions: 200 mg cream was treated with 150 μl 9M HCl (aq.) for 1 h and neutralized with 150 μl 9M NaOH; • Basic conditions: […] μl 1M HCl; • Oxidation: 200 mg of cream was treated with 1 ml 30% H2O2 for 2 h; CBD assay % was calculated according to the untreated reference.

Data set [2] can be described thus: Dissolution of CBD in oil solvents of the creams. As to conditions: CBD 2%; medium-chain triglycerides (MCT) and sesame oil. In kind it is physicochemical. How it is done: The main tested parameters included the following: • 1. Reduction of ethanol: Ethanol is generally considered a co-solvent of CBD. The concentration of ethanol was reduced from initial to final preparations, starting from 3.6% and 0.9% to no ethanol in the final preparations, where CBD was dissolved directly in sesame oil (see for example CBD #34 in Table 13 below). • 2. Selection of an antioxidant: The selected antioxidants were BHT and propyl gallate, in various combinations and proportions. […] Due to this property, the final preparations contained 0.05% BHT (see Table 13, CBD #34). • 3. Selection of an oil: Oil is a known solvent for CBD. Various oils were tested as optional solvents in the cosmetic creams of the invention. […] Both MCT and sesame oil have antioxidants properties (see Table 13, CBD #34).

For the molecule `C=C(C)[C@@H]1CCC(C)=C[C@H]1c1c(O)cc(CCCCC)cc1O` [CBD, cannabidiol], the CBD assay in data set [1] (Acid: 200 mg 2% CBD cream, 150 μl 9M HCl, 1 h) is 67.7%; in data set [1] (Base: 200 mg 2% CBD cream, 200 μl 1M NaOH, time point 1 h), 81.9%; in data set [1] (Heat: 200 mg 2% CBD cream at 100° C. (oil bath), 6 h), 87.8%; in data set [1] (Oxidation: 200 mg 2% CBD cream, 1 ml 30% H2O2, 2 h) it was 63.5%; in data set [1] (UV: 200 mg 2% CBD cream exposed to the sun, 3 h) it was 98.4%. For the same molecule, the “dissolution of CBD in oil solvent” value in data set [2] is “complete dissolution”.

The record behind these values is patent US20240315937A1, “STABLE EFFICIENT COSMETIC PREPARATIONS” (YISSUM RESEARCH DEVELOPMENT COMPANY OF THE HEBREW …, priority 2021, published 2024).
